# Source: patent US20150374718A1, “Zhankuic Acid A and Analogs thereof and Their Use as an Anti-Inflammatory Agent” (National Cheng Kung University, priority 2014, published 2015)
# Columns and labels:
# COX2 and iNOS = test: Immunoblot of COX2 and iNOS in LPS-stimulated peritoneal macrophages; format: cell-based, murine; settings: ZAA 1 h, then LPS 0.5 μg/mL 24 h; dose-dependent
# Method: (§1) FIG. 1. ZAA inhibits the production of inflammation-related molecules in LPS- and IFN-γ-stimulated murine macrophages. […] Total cell lysates were subjected to immunoblotting for detecting COX2 and iNOS. Relative expression levels of COX2 and iNOS protein were quantified by densitometric analysis with ImageJ software and normalized according to the β-actin reference band. […] The presence of nitrite in the culture medium was analyzed by the Griess assay and used as an indication of NO levels (n=4; *p<0.05 and ***p<0.001 vs. LPS- or IFN-γ-induced cells). (C) Raw264.7 cells were cotransfected with pNFKB-Luc and pβ-actin-LacZ plasmids. […] Total cell lysates were harvested, and their luciferase activities were determined and normalized on the basis of β-galactosidase activities. Values are means±SD (n=4; *p<0.05 and **p<0.01 vs. LPS-stimulated cells). […] Numbers below the blots in D and those shown in the table below the blots in E represent the relative expression levels quantified by densitometric analysis with ImageJ software and normalized according to the β-actin reference bands. […]
# (§2) C57BL/6 mice were injected intraperitoneally with 3% thioglycollate, and their peritoneal macrophages were collected 72 h later. […] The presence of nitrite (a metabolite of NO) in the culture medium was analyzed by the Griess assay (Sigma-Aldrich), as previously described (16).
# NO production = test: Griess assay of nitrite (NO) in macrophage culture medium; format: cell-based, murine; settings: ZAA 1 h, dose-dependent
# Method: as §1, §2
# [1] = tested on: murine peritoneal macrophages; test: Cell viability by MTS and SRB assays; format: cell-based; settings: up to 30 μM for 72 h; resident or LPS-activated macrophages; listed as ZAA
# Method: FIG. 6. ZAA is not cytotoxic to murine peritoneal macrophages. (A) Cells were incubated with various concentrations of ZAA for 72 h. Cell viability was determined by colorimetric tetrazolium (MTS) and sulphorhodamine B (SRB) assays. The absorbance was measured at 490 and 590 nm for MTS and SRB assays, respectively. […] Cell viability was determined by the SRB assay.
# We first investigated the anti-inflammatory properties of ZAA purified from T. camphoratus. During inflammation, large amounts of pro-inflammatory mediators, NO, and prostaglandin E2 (PGE2) are generated by iNOS and COX2.
# [2] = tested on: NF-κB-mediated transactivation in Raw264.7 cells; test: NF-κB luciferase reporter assay; format: cell-based, murine; settings: ZAA 1 h, then LPS 24 h
# Method: as §1, with “activities.” for “activities. Values are means±SD (n=4; *p<0.05 and **p<0.01 vs. LPS-stimulated cells).”
# Subconfluent Raw264.7 cells cultured in 24-well plates were cotransfected with p-NFκB-Luc and pβ-actin-LacZ plasmids using the Neon Transfection System (Invitrogen, Carlsbad, Calif.) according to the manufacturer's protocol. […] Relative luciferase activity was measured as luciferase activity divided by β-galactosidase activity to normalize transfection efficiency.
# [3] = tested on: LPS-induced TNF-α and IL-6 production; test: ELISA of cytokines in LPS-treated RAW264.7 cells; format: cell-based, murine; settings: ZAA 1 h, LPS 0.25 or 0.5 μg/mL
# [4] = tested on: S. choleraesuis-induced TNF-α and IL-6 production; test: ELISA of cytokines in S. choleraesuis-treated RAW264.7 cells; format: cell-based, murine; settings: ZAA 1 h, 2×10^3 CFU/well
# [5] = tested on: LPS-induced TNF-α and IL-6 production; test: Plasma cytokines in LPS-injected mice; format: in vivo; settings: ZAA i.p. 30 min before LPS 4 mg/kg i.p., 6 h
# [6] = tested on: S. choleraesuis-induced TNF-α and IL-6 production; test: Plasma cytokines in S. choleraesuis-infected mice; format: in vivo; settings: C57BL/6 mice; ZAA 10 mg/kg, oral S. choleraesuis 2×10^9 CFU/mouse; 6 h
# LPS-induced lethality = test: LPS-induced sepsis model (lethality); format: in vivo; settings: C3H/HeN mice; ZAA 2 or 10 mg/kg i.p., LPS 20 mg/kg i.p.
# Method: The mice were monitored every 2-4 h until all C3H/HeN mice in the ZAA-untreated and LPS-treated group expired.
# human neutrophils = settings: reference (9), cited from earlier work
# [7] = tested on: LPS-induced NO production; settings: reference (10); cited from earlier work
# [8] = tested on: LPS-induced lung and renal injury; test: LPS-induced lung and renal injury in mice; settings: ZAA 20 mg/kg i.p., LPS 4 mg/kg i.p., 10 h
# Method: After 10 h, mice were sacrificed, and their lung and kidney tissues were removed. […] (B) The number of infiltrated PMNs in each alveolus was observed by light microscopy (original magnification ×200). The number of PMNs was counted in four randomly chosen fields per slide for each mouse and normalized to the number of alveoli. […] Values shown in B-D are means ±SD (n=10; **p<0.01 and ***p<0.001).
# The lung and kidney were embedded in paraffin, sectioned, and stained with hematoxylin and eosin. Serum samples were collected for determination of blood urea nitrogen (BUN) and serum creatinine levels.
# S. choleraesuis = test: S. choleraesuis-induced diarrhea model in mice
# Method: (A and B) C57BL/6 mice that had been pretreated intraperitoneally with ZAA (2 or 10 mg/kg) or the vehicle for 30 min were orally administered with kanamycin-resistant S. choleraesuis (2×10^9 CFU/mouse). Diarrhea was scored after 2 days on a 0-3 scale (0=normal pellets, 1=slightly loose feces, 2=loose feces, and 3=watery diarrhea) (A). Body weight was recorded every 2 days for 2 weeks (n=9-12; **p<0.01 and ***p<0.001) (B). (C) Fecal samples were collected at 24-h intervals until 96 h after S. choleraesuis infection and assessed for viable bacterial CFU counts (n=10; **p<0.01 and ***p<0.001).
# The pEGFP-N1 (ΔEGFP)-transformed S. choleraesuis (2×10^9 CFU/mouse) was orally administered to mice with or without oral pretreatment of ZAA (2 or 10 mg/kg). […] Fecal samples were collected at 24-h intervals until 96 h after S. choleraesuis infection. S. choleraesuis in the feces was quantified by plating serial dilutions of fecal samples on kanamycin-containing agar plates and counting colonies after overnight incubation at 37° C. Mice were monitored daily for symptoms of diarrhea and loss of body weight. Diarrhea was defined according to a diarrhea score of 0-3 (0=normal pellets, 1=slightly loose feces, 2=loose feces, and 3=watery diarrhea) as previously described (21).
# [9] = TLR4 signaling-defective C3H/HeJ mice
structure (smiles),measurement,setting,value
"C=C(CC[C@@H](C)[C@H]1CC[C@H]2C3=C(C(=O)C[C@]12C)[C@@]1(C)CCC(=O)[C@@H](C)[C@@H]1CC3=O)C(C)C(=O)O (stereo partly drawn) [No. 1, Zhankuic acid A]",level of COX2 induced by LPS,COX2 and iNOS,downregulated
same,level of iNOS induced by LPS,COX2 and iNOS,downregulated
same,IFN-γ-induced NO production,NO production; then IFN-γ 50 ng/mL 24 h,inhibited
same,LPS-induced NO production,NO production; then LPS 0.5 μg/mL 24 h,inhibited
same,cytotoxic effects (MTS and SRB),[1],did not exert any cytotoxic effects
same,NF-κB-mediated transactivation (relative luciferase activity),[2],inhibited
same,LPS-induced TNF-α production,[3]; supernatant after 4 h,inhibited
same,LPS-induced IL-6 production,[3]; supernatant after 6 h,inhibited
same,S. choleraesuis-induced TNF-α production,[4]; 4 h,effectively suppressed
same,S. choleraesuis-induced IL-6 production,[4]; 6 h,effectively suppressed
same,plasma IL-6 production,[5]; C3H/HeN mice,significantly reduced
same,plasma TNF-α production,[5]; C3H/HeN mice,significantly reduced
same,plasma IL-6 production,[5]; [9],a much weaker response
same,plasma TNF-α production,[5]; [9],a much weaker response
same,S. choleraesuis-induced IL-6 production,[6],effectively suppressed
same,S. choleraesuis-induced TNF-α production,[6],effectively suppressed
same,protection against LPS-induced lethality (survival),LPS-induced lethality,significantly protected
same,ROS production,human neutrophils; fMLP- or PMA-activated peripheral human neutrophils,inhibits
same,cytotoxicity,human neutrophils; human neutrophils,without exerting significant cytotoxicity
same,inflammatory responses by human neutrophils,human neutrophils,prevent inflammatory responses
same,LPS-induced NO production,[7],inhibiting
same,LPS-induced pulmonary accumulation of PMNs,[8]; C3H/HeN mice,significantly prevented
same,extent of LPS-induced glomerulonephritis,[8]; C3H/HeN mice,significantly reduced
same,BUN level,[8],markedly reduced
same,serum creatinine level,[8],markedly reduced
same,fecal bacterial level,"S. choleraesuis; 96 h after bacterial infection, ZAA 10 mg/kg",undetectable
same,body weight loss,"S. choleraesuis; C57BL/6 mice, ZAA 10 mg/kg",dramatically attenuated
same,time to return to normal body weight,"S. choleraesuis; C57BL/6 mice, ZAA 10 mg/kg",≤ 2 weeks
same,fecal bacterial load,"S. choleraesuis; C57BL/6 mice, ZAA 2 or 10 mg/kg, 24-96 h, dose- and time-dependent",dramatically reduced
same,diarrhea score,"S. choleraesuis; C57BL/6 mice, ZAA 2 or 10 mg/kg, scored after 2 days, 0-3 scale",reduced
